We go through five compounds from patent US9675579B2, “Tetrahydrocannabivarin for use in the treatment of nausea and vomiting” (GW Pharma Limited, priority 2013, dated 2017).

Series [1] relates to Sprague-Dawley rats. Briefly: Conditioned gaping to saccharin paired with the compound (Example 1). How it is done: Naïve male Sprague-Dawley rats, obtained from Charles River Laboratories (St Constant, Quebec) were single-housed in shoebox cages in the colony room at an ambient temperature of 21° C. with a 12/12 light/dark schedule (lights off at 8 AM) and maintained on ad-libitum food and water.
Drugs and Materials: All cannabinoid compounds were prepared in a vehicle (VEH) of ethanol/Cremophor (Sigma)/saline (SAL; 1:1:18) and administered intraperitonally (i.p.).
SR was prepared at 2.5, 10 and 20 mg/kg and administered at a volume of 2 ml/kg. CBDV was prepared at 2.5 and 10 mg/kg and administered at a volume of 2 ml/kg. A high dose of CBDV was prepared at 200 mg/kg and administered at a volume 10 ml/kg. THCV was prepared at 2.5, 10 and 20 mg/kg and administered at a volume of 2 ml/kg.
Procedures: Rats were implanted with intraoral cannulae under isofluorane anesthesia. […]
Seventy two hours after the conditioning trial, the rats were returned to the TR chamber and intraorally infused with 0.1% saccharin solution and their orofacial reactions were video recorded with the feed from the video camera fire-wired into a computer. The video tapes are later scored (at 1/2 speed) by a trained observer blind to the experimental conditions for the behaviour of gaping (large openings of the mouth and jaw, with lower incisors exposed).

Series [2] concerns Sprague-Dawley rats. In words: Potentiation or attenuation of LiCl-induced conditioned gaping (Example 2). It is filed as in vivo, rat. The note with it: for LiCl-induced conditioned gaping reactions relative to group VEH: rats, drug-free test 72 h later. The protocol: Animals and Drugs and Materials were as described in Example 1 above.
Following recovery from intraoral cannulation surgery, the rats received the adaptation trial to the TR test as described in Example 1 above. On the day of conditioning (saccharin palatability test), the rats were injected with VEH (n=10), 2.5 mg/kg SR (n=10), 2.5 mg/kg THC (n=6), 10 mg/kg THC (n=7), 2.5 mg/kg THCV (n=10) or 10 mg/kg THCV (n=6), 2.5 mg/kg CBDV (n=10) or 200 mg/kg CBDV (n=13). Thirty min later, each rat was intraorally infused with 0.1% saccharin solution while their orofacial responses were video recorded from the mirror beneath the chamber. Immediately following the 2 min intraoral infusion of saccharin, the rats were injected with 20 ml/kg or 0.15 M LiCl.
Seventy-two hours later, the rats received a drug-free test trial, during which they received a 2 min intraoral infusion of 0.1% saccharin solution and the frequency of gaping was measured. The videotapes were later scored (at 1/2 speed) by an observer blind to the experimental conditions for the hedonic reaction of tongue protrusions (at conditioning and testing). As well, to determine other non-specific effects of the drug during conditioning, the conditioning tapes were scored for bouts of active locomotion (forward movement of paws on the floor of the cage).

The subject of a further series is rodent. The note with it: cited from earlier work; for suppression of toxin-induced conditioned gaping: rodent model of conditioned nausea.
The target in series [3] is CB1 receptor (Homo sapiens, UniProt P21554). The note with it: in vitro, Thomas et al., 2005; cited from earlier work.
The next series addresses CB2 receptor (Homo sapiens, UniProt P34972). The note with it: in vitro, Thomas et al., 2005; cited from earlier work.
For series [4], the target named is CB1 receptor (Mus musculus, UniProt P47746). The settings on record: low doses (<3 mg/kg), Pertwee et al., 2007; cited from earlier work.
Setting [5] is: 2.5 mg/kg i.p. 30 min before saccharin-LiCl pairing.

“Also recorded” adds a separate entry of the source. Read-outs that look alike come from different tables or passages of the source.

Chain of CB1 receptor (Mus musculus, UniProt P47746) (P47746 whole entry): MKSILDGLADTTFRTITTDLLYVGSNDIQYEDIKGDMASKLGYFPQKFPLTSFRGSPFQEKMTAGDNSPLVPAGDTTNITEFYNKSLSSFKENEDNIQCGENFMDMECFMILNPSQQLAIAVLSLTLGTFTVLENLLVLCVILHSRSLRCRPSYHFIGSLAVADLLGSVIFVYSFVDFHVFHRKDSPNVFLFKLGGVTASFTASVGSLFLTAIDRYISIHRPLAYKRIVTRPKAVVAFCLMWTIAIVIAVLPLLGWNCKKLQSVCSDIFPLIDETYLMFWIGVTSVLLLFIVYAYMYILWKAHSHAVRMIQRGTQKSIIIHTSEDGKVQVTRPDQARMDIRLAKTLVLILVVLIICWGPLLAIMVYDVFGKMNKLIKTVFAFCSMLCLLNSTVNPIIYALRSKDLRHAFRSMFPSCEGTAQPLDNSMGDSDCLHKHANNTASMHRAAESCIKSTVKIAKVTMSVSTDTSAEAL
Chain of CB2 receptor (P34972 whole entry): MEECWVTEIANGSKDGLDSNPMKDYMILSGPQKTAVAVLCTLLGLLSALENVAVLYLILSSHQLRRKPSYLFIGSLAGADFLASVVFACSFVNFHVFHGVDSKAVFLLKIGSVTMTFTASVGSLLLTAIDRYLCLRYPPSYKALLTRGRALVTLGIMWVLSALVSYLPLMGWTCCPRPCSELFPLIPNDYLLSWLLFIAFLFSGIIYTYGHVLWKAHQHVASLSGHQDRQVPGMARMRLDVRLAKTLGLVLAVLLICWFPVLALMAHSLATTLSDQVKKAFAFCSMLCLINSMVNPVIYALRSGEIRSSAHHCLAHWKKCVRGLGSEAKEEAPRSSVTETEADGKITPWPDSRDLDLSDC
Chain of CB1 receptor (Homo sapiens, UniProt P21554) (P21554 whole entry): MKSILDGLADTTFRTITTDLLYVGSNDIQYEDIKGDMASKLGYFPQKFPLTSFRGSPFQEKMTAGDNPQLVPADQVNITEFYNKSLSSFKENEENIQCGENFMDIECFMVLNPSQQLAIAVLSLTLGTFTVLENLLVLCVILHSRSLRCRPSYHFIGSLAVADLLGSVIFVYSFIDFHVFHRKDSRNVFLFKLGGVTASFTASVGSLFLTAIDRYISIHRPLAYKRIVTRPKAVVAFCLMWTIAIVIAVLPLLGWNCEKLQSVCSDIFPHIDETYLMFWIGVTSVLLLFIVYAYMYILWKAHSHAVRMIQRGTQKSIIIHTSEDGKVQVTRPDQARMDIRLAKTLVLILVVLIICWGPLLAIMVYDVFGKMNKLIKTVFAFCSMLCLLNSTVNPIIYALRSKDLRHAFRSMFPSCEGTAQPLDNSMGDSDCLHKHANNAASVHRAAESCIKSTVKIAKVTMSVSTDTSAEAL

Turning to `Cc1c(C(=O)NN2CCCCC2)nn(-c2ccc(Cl)cc2Cl)c1-c1ccc(Cl)cc1` [SR, rimonabant], the “conditioned gaping, 20 mg/kg compared with 10 mg/kg” value with Sprague-Dawley rats [1] (rat, in vivo) is “marginally more gaping”. Moreover, the “LiCl-induced conditioned gaping reactions relative to group VEH” value in the series with Sprague-Dawley rats [2] (setting [5]) is “potentiated LiCl-induced gaping reactions”. Also, the “potentiation of the nausea produced by LiCl (potentiated gaping)” value with rodent (2.5 mg/kg, sub-threshold for nausea on its own, pre-treatment prior to saccharin-LiCl pairing, drug-free test 72 hours after conditioning) is listed as “potentiated the nausea produced by LiCl”.

Regarding `C=C(C)[C@@H]1CCC(C)=C[C@H]1c1c(O)cc(CCC)cc1O` [CBDV], the “LiCl-induced conditioned gaping reactions relative to group VEH” value in the series on Sprague-Dawley rats [2] (setting [5]) was “marginally attenuated LiCl-induced gaping reactions”; in the series with Sprague-Dawley rats [2] (200 mg/kg i.p. 30 min before saccharin-LiCl pairing, 200 mg/kg), “significantly attenuated the LiCl-induced gaping reactions; also recorded: statistically significant anti-nausea effect”.

Turning to `C=C(C)[C@@H]1CCC(C)=C[C@H]1c1c(O)cc(CCCCC)cc1O` [CBD, cannabidiol], in the series with rodent (5 mg/kg), the “suppression of toxin-induced conditioned gaping” value is “suppress toxin-induced conditioned gaping”.

Regarding `CCCc1cc(O)c2c(c1)OC(C)(C)[C@@H]1CCC(C)=C[C@@H]21` [THCV, tetrahydrocannabivarin], in the series with Sprague-Dawley rats [1] (rats, i.p., all doses tested (SR 10, 20; AM251 10; THCV 10, 20; CBDV 10, 200 mg/kg), drug-free test 72 h after conditioning, vs VEH and other groups), the “conditioned gaping reactions (nausea-like reactions) elicited by 0.1% saccharin previously paired with the compound” value is on record as “did not produce apparent inverse agonist properties; also recorded: neither CBDV (10 or 200 mg/kg) nor THCV (10 or 20 mg/kg) produced the nausea-like profile of conditioned gaping”. Besides, the “human equivalent dose of the dose that blocked LiCl-induced nausea” value in the series with Sprague-Dawley rats [2] (calculated from the rat dose, Km rat 6, Km human 37) is given as “greater than 0.4 mg/kg”. For the same compound, the “dose that blocked LiCl-induced nausea” value in the series with Sprague-Dawley rats [2] (in rats) is recorded as “greater than 2.5 mg/kg”. Moreover, the “LiCl-induced conditioned gaping reactions relative to group VEH” value in the series with Sprague-Dawley rats [2] (setting [5]) was “marginally attenuated LiCl-induced gaping reactions”; in the series with Sprague-Dawley rats [2] (10 mg/kg i.p. 30 min before saccharin-LiCl pairing, 10 mg/kg) it was “no gaping reactions; also recorded: eliminated LiCl-induced nausea”. In addition, the “action at the CB1 receptor” value on CB1 receptor [3] was “acts as a CB1 and CB2 receptor antagonist”. Further, the “action at the CB2 receptor” value at CB2 receptor is “acts as a CB1 and CB2 receptor antagonist”. Further, the “action at the CB1 receptor in vivo” value at CB1 receptor [4] is recorded as “act as a CB1 receptor antagonist”.

Regarding `CCCCCc1cc(O)c2c(c1)OC(C)(C)[C@@H]1CCC(C)=C[C@@H]21` [THC, tetrahydrocannabinol], the “LiCl-induced conditioned gaping reactions relative to group VEH” value in the series on Sprague-Dawley rats [2] (setting [5]) and in the series on Sprague-Dawley rats [2] (10 mg/kg i.p. 30 min before saccharin-LiCl pairing) was “significantly attenuated the LiCl-induced gaping reactions” throughout. Moreover, the “suppression of toxin-induced conditioned gaping” value in the series on rodent (0.5 mg/kg) is recorded as “suppress toxin-induced conditioned gaping”.
